Values of other authors as cited in patent US20260232611A1, “USE OF (S)-3-AMINO-4-(DIFLUOROMETHYLENYL) CYCLOPENT-1-ENE-1-CARBOXYLIC ACID IN THE TREATMENT OF RHEUMATOID ARTHRITIS” (Ovid Therapeutics Inc., priority 2023, published 2026).

Tests used:
[1] = test system: aspartate aminotransferase (Asp-AT); conditions: unlike vigabatrin
[2] = test system: alanine aminotransferase (Ala-AT); conditions: unlike vigabatrin

N[C@H]1C[C@@H](C(=O)O)CC1=C(F)F [CPP-115, (1S,3S)-3-amino+difluoromethylenyl-1-cyclopentanoic acid]
inactivation or inhibition of off-target enzyme [1]: not to inactivate or inhibit
inactivation or inhibition of off-target enzyme [2]: not to inactivate or inhibit
